Read-outs that look alike come from different tables or passages of the source.
Legend:
MNV = test: Time-of-drug-addition assay (TOA) in MNV-infected RAW 264.7 cells; assay type: cell-based, Murine norovirus; details: time-of-addition experiment
Procedure: RAW 264.7 cells (4 × 10^5 cells/mL) were infected with MNV (MOI of 1). After 1 h at 4 °C, cells were washed with cold (4 °C) DMEM to remove unbound viruses. Cells were incubated at 37 °C to start the infection. To study the replication kinetics of MNV supernatant and cells were harvested, from untreated cultures, every 2 h until 24 h post-infection (pi) and viral RNA was quantified by RT-qPCR. In parallel, another set of infected cultures were treated with compound. The compound was added at 2 h intervals and cultures were further incubated until 24 h pi, supernatant and cells were collected separately for determination of the viral RNA by RT-qPCR. The isolation of the extracellular MNV RNA from cell culture supernatant was done by the NucleoSpin RNA Virus Kit (Macherey–Nagel), and the intracellular RNA was extracted from cells by the RNeasy kit (Qiagen).

[1] = tested on: MNV.CW3/S131T and MNV.CW3/Y154F; test: Antiviral assay on reverse-engineered MNV.CW3 mutant viruses (S131T, Y154F); assay type: cell-based, Murine norovirus; details: single mutations S131T or Y154F in MNV backbone
Procedure: The desired mutations were introduced into the MNV.CW3 cDNA clones using the QuikChange II XL mutagenesis kit (Agilent) according to the manufacturer’s instructions. The presence of the desired mutation in the produced construct was confirmed by PCR and sequencing was done by Macrogen Inc. Sequences were analyzed and mutations were detected using the Geneious software.
The MNV.CW3 mutant viral stocks were obtained by transfecting the mutated plasmid pMNV CW3 (kindly provided by Prof. Wobus, University of Michigan) in Huh 7 Lunet cells expressing the MNV receptor CD300lf (kindly provided by Prof. Taube, University of Lübeck). Huh-7 CD300lf cells were cultured under selective pressure of G418. The Huh-7 CD300lf cells were seeded in 6-well plates at a density of 2 × 10^5 cells/mL in 2.5 mL of complete media. After 24 h, the cells were transfected with 2.5 μg of pMNV CW3 plasmid DNA using the TransIT mRNA Transfection Kit (Mirus Bio Corporation) according to the manufacturer’s protocol. Red fluorescent protein (RFP) was used as a positive control for transfection. Transfected cells were incubated for 48 h, cells underwent two freeze thaw cycles and the virus was harvested from the supernatants after centrifugation (10 min, 1000× g) and stored at −80 °C. Virus stocks were passaged for three times on BV-2 cells and followed by two consecutive passages on RAW 264.7 cells. Viral titers were determined by serial dilutions on RAW 264.7 cells seeded in 96-well plates.
The assessment of the antiviral activity of compounds on resistant viruses was performed similarly as the regular antiviral assay on MNV. First, the titer of the resistant viruses was determined by endpoint titration. A concentration of 30× TCID50 was used for each virus in the antiviral assays. RAW 264.7 cells (1 × 10^4 cells/well) were seeded in the presence of a dilution series of compounds and infected. Antiviral activity was determined using the MTS method. The 50% effective concentration (EC50) was defined as the compound concentration that protected 50% of the cells from CPE.

[2] = tested on: HuNoV GI.1 replicon (Norwalk replicon); test: HuNoV GI.1 replicon assay in HG23 cells (RT-qPCR); assay type: cell-based, Human norovirus; details: Norovirus, HG23, 72 h, Norwalk replicon (human GI.1), HG23 cells, 72 h, replicon RNA by RT-qPCR; read-out: HuNoV Replicon EC50 ± SD
Procedure: HuNoV GI.1 replicon: The experiment was performed as described earlier with minor modifications. In short, HG23 cells (7.5 × 10^2 cells/well) were seeded into the wells of a 96-well plate without G418 (Geneticin Selective Antibiotic). After 24 h of incubation, serial dilutions of compounds were added. Cells were further incubated for 72 h, then cells were collected for RNA load quantification by RT-qPCR. To determine relative levels of Norwalk virus replicon RNA, β-actin was used as a normalizer and ratios were calculated as previously described.

[3] = Cytotoxicity assay (MTS) on non-infected RAW 264.7 cells; assay type: cell-based; details: mouse, non-infected RAW 264.7 cells, cytotoxic concentration to induce 50% death of non-infected RAW 264.7 cells; read-out: MNV CC50 ± SD
Procedure: (§1) Norovirus: The experiment was performed as described earlier. In short, RAW 264.7 cells (1 × 10^4 cells/well) were infected with MNV.CW1 in the presence of a dilution series of compounds. Antiviral activity and cytotoxicity were determined using a colometric assay using 3-(4,5-dimethylthiazol-2-yl)-5-(3-carboxymethoxyphenyl)-2-(4-sulfophenyl)-2H-tetrazolium (MTS). The 50% effective concentration (EC50) was defined as the compound concentration that protected 50% of the cells from CPE. The cell viability % was calculated as (ODtreated/ODCC) […] and the 50% cytotoxic concentration (CC50) was defined as the compound concentration that reduces the number of viable cells by 50%.

[4] = tested on: Murine norovirus type 1, strain CW1; test: MNV-induced CPE reduction assay (MTS read-out) in RAW 264.7 cells; assay type: cell-based; details: MNV CW1, RAW 264.7 cells, read-out: MNV EC50 ± SD
Procedure: as §1

RAW 264.7 cells = test: Cytotoxicity assay (MTS) on non-infected RAW 264.7 cells; assay type: cell-based; details: RAW 264.7 cells
Procedure: as §1

[5] = RAW264.7, concentration inhibiting norovirus induced cell death (CPE) by 50%

Row | Structure (SMILES) | step of the MNV replication cycle at which the compound acts (MNV) | shift in EC50 / sensitivity of mutant viruses [1] | EC50 [2] [µM] | CC50 [3] [µM] | EC50 [4, 5] [µM] | EC50 ([4]; concentration inhibiting norovirus induced cell death (CPE) by 50%) [µM] | melting point [°C] | cytotoxicity (in words) (RAW 264.7 cells)
1 | C[C@@]1(O)[C@H](O)[C@@H](CO)O[C@H]1n1ccc(N)nc1=O [2CMC, 2′-C-methylcytidine, reference compound] | onset of the viral genome replication | remained equally sensitive | – | – | – | – | – | –
2 | Cc1cc(C)cc(S(=O)(=O)c2c(C(=O)Nc3ccc(CO)cc3)[nH]c3ccc(Cl)cc23)c1 [compound 1, 5-Chloro-3-((3,5-dimethylphenyl)sulfonyl)-N-(4-(hydroxymethyl)phenyl)-1H-indole-2-carboxamide] | – | – | ~2 | > 100 | 0.5 ± 0.1 | 0.52 ± 0.07 | 220 to 221 | –
3 | Cc1cc(C)cc(S(=O)(=O)c2c(C(=O)NCc3ccccc3)[nH]c3ccc(Cl)cc23)c1 [compound 2, N-Benzyl-5-chloro-3-((3,5-dimethylphenyl)sulfonyl)-1H-indole-2-carboxamide] | – | – | 3.66 ± 0.66 | > 100 | > 100 | – | – | –
4 | Cc1cc(C)cc(S(=O)(=O)c2c(C(=O)NCCO)[nH]c3ccc(Cl)cc23)c1 [compound 3, 5-Chloro-3-((3,5-dimethylphenyl)sulfonyl)-N-(2-hydroxyethyl)-1H-indole-2-carboxamide] | – | – | 47.7 ± 3.39 | 88.7 ± 4.75 | > 100 | – | – | –
5 | Cc1cc(C)cc(S(=O)(=O)c2c(C(=O)NCc3ccc(O)cc3)[nH]c3ccc(Cl)cc23)c1 [compound 4, 5-Chloro-3-((3,5-dimethylphenyl)sulfonyl)-N-(4-hydroxybenzyl)-1H-indole-2-carboxamide] | – | – | 88.3 ± 4.75 | 3.48 ± 1.1 | > 100 | – | 236 to 237 | highly cytotoxic
6 | O=C(Nc1ccc(CO)cc1)c1[nH]c2ccc(Cl)cc2c1S(=O)(=O)c1ccccc1 [compound 5, 5-Chloro-N-(4-(hydroxymethyl)phenyl)-3-(phenylsulfonyl)-1H-indole-2-carboxamide] | – | – | – | 34.9 ± 5.03 | > 100 | – | 152 to 155 | –
7 | Cc1cc(C)cc(Cc2c(C(=O)NCc3ccc(CO)cc3)[nH]c3ccc(Cl)cc23)c1 [compound 7, 5-Chloro-3-(3,5-dimethylbenzyl)-N-(4-(hydroxymethyl)benzyl)-1H-indole-2-carboxamide] | – | – | 5.59 ± 2.47 | 9.27 ± 6.6 | 0.84 ± 0.22 | – | 171 to 174 | –
8 | Cc1cc(C)cc(C(=O)c2c(C(=O)NCc3ccc(CO)cc3)[nH]c3ccc(Cl)cc23)c1 [compound 8, 5-Chloro-3-(3,5-dimethylbenzoyl)-N-(4-(hydroxymethyl)benzyl)-1H-indole-2-carboxamide] | – | – | – | 7.97 ± 15.3 | > 100 | – | 271 to 274 | –
9 | Cc1cc(C)cc(Sc2c(C(=O)NCc3ccc(CO)cc3)[nH]c3ccc(Cl)cc23)c1 [compound 9, 5-Chloro-3-((3,5-dimethylphenyl)thio)-N-(4-(hydroxymethyl)benzyl)-1H-indole-2-carboxamide] | – | – | 11.8 ± 8.4 | 31.7 ± 8.01 | 4.39 ± 4.78 | – | 212 to 215 | –
10 | O=C(NCc1ccc(CO)cc1)c1[nH]c2ccc(Cl)cc2c1S(=O)(=O)c1ccccc1 [compound 10, 5-Chloro-N-(4-(hydroxymethyl)benzyl)-3-(phenylsulfonyl)-1H-indole-2-carboxamide] | – | – | 18.5 ± 16.3 | 25.7 ± 34.9 | 0.63 ± 0.48 | – | 182 to 185 | –
11 | Cc1cc(C)cc(S(=O)(=O)c2c(C(=O)NCCc3ccc(O)cc3)[nH]c3ccc(Cl)cc23)c1 [compound 11, 5-Chloro-3-((3,5-dimethylphenyl)sulfonyl)-N-(4-hydroxyphenethyl)-1H-indole-2-carboxamide] | – | – | 27.5 ± 28.7 | 8.49 ± 8.09 | 36 ± 23.3 | – | 231 to 234 | highly cytotoxic
12 | CCOC(=O)/C=C/[C@H](C[C@@H]1CCNC1=O)NC(=O)[C@@H](CC(=O)[C@@H](NC(=O)c1cc(C)on1)C(C)C)Cc1ccc(F)cc1 [rupintrivir] | – | remained equally sensitive | – | – | – | – | – | –

Source: article PMC8537218, “Discovery of a Novel Class of Norovirus Inhibitors with High Barrier of Resistance” (Pharmaceuticals, 2021)
